Tests used:
[1] = biological target: T1, RNase H of HBV polymerase (HBV-RNase H) (Hepatitis B virus ayw/France/Tiollais/1979, UniProt P03156); test: inhibitory effects against RNase H activity of HBV polymerase; assay type: biochemical; conditions: read-out: Inhibitory effect of HBV-RNase H; for inhibition at 0.1 µg/mL: 0.1 μg/ml; for inhibition at 1 µg/mL: 1 μg/ml
T1 construct: amylose/maltose step implies MBP fusion
Description: Experiment 2: The inhibitory effects against RNase H activity of HBV polymerase.
1) Expression of the RNase H domain derived from human HBV polymerase
E.coli NM 522 was transformed by the expression vector pMRH respectively and the transformants were cultured in LB medium at 37° C., overnight. These growing cultures were diluted 1:100, inoculated into a glucose rich medium and incubated until OD600 reached 0.5. Then IPTG (isopropylthiogalactoside) was added into the medium of which the fine concentration was 0.5 mM. The above growing cultures were incubated again at 20° C. for 16 hours and the RNase H domain was expressed.
The above cultured broth was centrifuged for 10 minutes at 3,000 rpm and the cell pellet was washed with 10 ml of TNE column buffer (10 mN Tris-Cl, pH 8.0, 200 mM NaCl, 1 mM EDTA), and resuspended in 10 ml of TNE column buffer. The cells were freezed and thawed 4 times repeatedly, and then disrupted by sonication for 10 seconds 3 times. The crude extract prepared in the above process was centrifuged for 30 minutes at 13,000 rpm, 4° C. and the supernatant was separated. The above process was repeated 2 times and then the supernatant passed the amylose resin. The resin was washed by using column buffer with 50 times of resin volume, and the RNase H domain was eluted by using buffer containing 10 mM maltose.
In addition, the RNase H domain produced from the expression vector pMRH was purified by using histidine tag affinity column, because RNase H has a histidine tag at the C-terminus. The resin (Ni-NTA, QIAGEN) used in the histidine tag affinity column was activated by using sonication buffer (50 mM sodium phosphate, pH 8.0, 300 mM sodium chloride) and 4~5 ml of the activated resin was charged in the glass tube whose diameter was about 1 cm. The protein sample obtained from above description passed the resin at the 0.1 ml/ min flow rate and the column was washed by using washing buffer with the 100~200 times volume of protein sample (50 mM sodium phosphate, pH 6.0, 300 mM sodium chloride, 10% glycerol). The recombinant protein was eluted by washing the column with concentration gradient of 0.01~0.5 M imidazole.
As a result, the active RNase H domain was separated from the histidine tag affinity column at 30 mM concentration of imidazole. The purified RNase H domain was mixed with 50% glycerol for storage at -20° C. after the removal of imidazole from it and employed fol the screening of HBV inhibitors.
2) Preparation of the substrate of the RNase H enzyme
In order to identify the RNase H activity, RNA/DNA complex which can be used as a substrate of the RNase H enzyme was prepared by performing in vitro transcription with […].
3) Screening of active inhibitors against RNase H
The RNase H activity was measured by using recombinant RNase H enzyme and radiolabled RNA/DNA hybrid. In order to measure the RNase H activity, 1 μg of RNase H enzyme and test compound were mixed with buffer solution containing 40 mM Tris-Cl (pH 8.0), 4 mM magnesium chloride, 40 mM potassium chloride and 2 mM DTT. The mixture was pretreated on ice for 10 minutes. After pretreatment is completed, RNA/DNA hybrid was added to incubate at 37° C. for 3 hours. After the reaction was stopped, 7.5 M ammonium acetate in a volume of 1/2 and ethanol in a 3-fold volume were added. The above reaction mixture was incubated at -20° C. for more than 2 hours and centrifuged for 15 minutes at 4° C., 13,000 rpm. The supernatant was obtained and the radioactive signal of supernatant was measured by scintillation counter.
As a control, water was added instead of test compound and the inhibitory activity was calculated to compare with the control, when the radioactivity intensity on each test compound, was obtained.

[2] = biological target: T2, HBV polymerase reverse transcriptase (HBV-RT) (Hepatitis B virus genotype D subtype ayw, UniProt P03156); test: inhibitory activity against HBV polymerase in vitro (reverse transcriptase activity); assay type: biochemical; conditions: read-out: Inhibitory effect of HBV-RT; for inhibition at 0.1 µg/mL: 0.1 μg/ml; for inhibition at 1 µg/mL: 1 μg/ml
T2 construct: made in house; host or cells: E. coli
Source text: Experiment 1: The inhibitory activity against HBV polymerase in vitro.
Recently, the inventors of the present invention have produced a recombinant HBV polymerase that is expressed from E.coli transformant, measured its enzyme activity and filed patent applications thereof [Korean Patent Application Nos. 94-3918, 96-33998 and 96-63255].
The inventions have established a method of measuring the reverse transcriptase activity of HBV polymerase in vitro. The fundamental principle is the same as the ELISA method, and after reacting the substrate with biotin- and DIG-modified nucleotide, a method of recognizing the polymerized substrate as anti-DIG antibody with peroxidase was used. […] and 20 μ of test compound were mixed and reacted at 14~30° C. for 18~24 hours. Then, the inhibitory effect of test compound against reverse trascriptase activity in the HBV polymerase was examined, compared with the results of control tests without the test compound.

[3] = biological target: T3, HIV reverse transcriptase (HIV-RT) (Human immunodeficiency virus type 1 group M subtype B, UniProt P04585); test: in vitro inhibition test against HIV reverse transcriptase; assay type: biochemical, HIV (AIDS virus); conditions: read-out: Inhibitory effect of HIV-RT; for inhibition at 0.1 µg/mL: 0.1 μg/ml; for inhibition at 1 µg/mL: 1 μg/ml
T3 construct: purchased Boehringer Mannheim
Description: Experiment 3: The in vitro inhibition test against HIV reverse transcriptase
The inhibitory activity in vitro was measured using a non-radioactive reverse transcriptase assay Kit (Boehringer Mannheim).
At first, 20 μl(40 ng) HIV-RT was added to the wells coated with streptavidin and with the addition of 20 μl, reaction mixture containing template/primer hybrid poly(A)/oligo(dT)15 and DIG-(digoxigenin)-dUTP, biotin-dUTP and TTP, 20 μl test compound was added and reacted at 37° C. for 1 hour. The control without test compound was used for the comparison of related activity. Since DNA containing nucleotide labeled with digoxigenin and biotine was prepared by the action of HIV-RT, it was combined with streptavidin coated at the bottom of the wells. After the reaction was completed, remaining impurities were removed by washing each well with 20 μl buffer solution (pH 7.0) for 30 seconds 5 times and with the addition of 200 μl anti-DIG-POD antibody, the mixture was reacted at 37° C. for 1 hour. For the removal of remaining impurities again, the reacting solution was washed with a buffer solution and with the addition of 200μl ABTS™ each, a substrate of POD(peroxidase), the solution was reacted at room temperature for 30 minutes. The absorbance was read by ELISA reader at 405 nm for the assay of reverse transcriptase activity and its inhibition activity.

T2 sequence (P03156 whole entry): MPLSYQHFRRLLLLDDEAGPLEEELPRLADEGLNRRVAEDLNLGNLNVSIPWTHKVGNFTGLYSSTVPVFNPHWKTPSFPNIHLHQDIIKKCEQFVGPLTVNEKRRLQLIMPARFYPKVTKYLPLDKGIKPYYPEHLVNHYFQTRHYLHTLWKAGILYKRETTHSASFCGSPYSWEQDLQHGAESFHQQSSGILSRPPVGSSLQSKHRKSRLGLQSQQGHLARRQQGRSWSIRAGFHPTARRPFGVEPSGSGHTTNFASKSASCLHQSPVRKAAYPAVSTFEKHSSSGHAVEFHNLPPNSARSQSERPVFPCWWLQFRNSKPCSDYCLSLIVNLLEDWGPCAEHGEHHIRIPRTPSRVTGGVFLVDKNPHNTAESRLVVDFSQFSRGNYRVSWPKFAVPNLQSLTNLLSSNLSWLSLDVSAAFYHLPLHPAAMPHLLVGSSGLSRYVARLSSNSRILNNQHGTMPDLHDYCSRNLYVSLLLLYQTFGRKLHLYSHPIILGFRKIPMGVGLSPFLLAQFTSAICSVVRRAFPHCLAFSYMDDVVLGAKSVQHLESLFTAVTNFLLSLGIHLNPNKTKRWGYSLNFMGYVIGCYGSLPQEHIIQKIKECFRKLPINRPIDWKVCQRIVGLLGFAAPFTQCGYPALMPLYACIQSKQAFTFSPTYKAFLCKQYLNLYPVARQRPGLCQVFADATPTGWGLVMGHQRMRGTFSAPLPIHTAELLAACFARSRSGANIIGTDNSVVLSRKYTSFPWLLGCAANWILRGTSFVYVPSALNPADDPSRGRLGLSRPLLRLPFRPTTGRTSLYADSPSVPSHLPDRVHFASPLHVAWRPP
T1 sequence (P03156 680-832): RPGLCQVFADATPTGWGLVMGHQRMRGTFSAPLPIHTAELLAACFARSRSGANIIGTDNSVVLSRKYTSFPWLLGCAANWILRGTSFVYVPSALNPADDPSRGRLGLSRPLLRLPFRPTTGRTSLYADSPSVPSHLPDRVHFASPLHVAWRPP

SMILES	inhibition at 0.1 µg/mL [1] [%]	inhibition at 1 µg/mL [1] [%]	inhibition at 0.1 µg/mL [2] [%]	inhibition at 1 µg/mL [2] [%]	inhibition at 0.1 µg/mL [3] [%]	inhibition at 1 µg/mL [3] [%]
CCN(CCO)C(=O)c1ccc(C(=O)N2CCN(c3ncccc3NC(C)C)CC2)cc1 [Compound No. 6, 1-[N-Ethyl-N-(2-hydroxyethyl)carbamoyl]-4-[1-[3-(isopropylamino)-2-pyridyl]piperazin-4-yl-carbonyl]benzene]	55	83	30	51	–	–
CC(C)Nc1cccnc1N1CCN(C(=O)c2ccc(C(=O)N(CCO)CCO)cc2)CC1 [Compound No. 12, 1-[N,N-Bis(2-hydroxyethyl)carbamoyl]-4-[1-[3-(isopropylamino)-2-pyridyl]piperazin-4-yl-carbonyl]benzene]	86	91	52	63	46	52
CC(C)Nc1cccnc1N1CCN(C(=O)c2ccc(C(=O)N(C)CC3OCCO3)cc2)CC1 [Compound No. 71, 1-[N-[(1,3-Dioxolan-2-yl)methyl]-N-methylcarbamoyl]-4-[1-[3-(isopropylamino)-2-pyridyl]piperazin-4-yl-carbonyl]benzene]	56	62	35	51	68	70
CC(C)Nc1cccnc1N1CCN(C(=O)c2ccc(C(=O)N3CCN(CC(O)CO)CC3)cc2)CC1 (stereo not shown) [Compound No. 31, 4-(2,3-Dihydroxypropyl)-1-[4-[1-[3-(isopropylamino)-2-pyridyl]piperazin-4-yl-carbonyl]benzoyl]piperazine]	80	85	30	52	–	–
CC(C)Nc1cccnc1N1CCN(C(=O)c2ccc(C(=O)N3CCNCC3)cc2)CC1 [Compound No. 19, 1-[4-[1-[3-(Isopropylamino)-2-pyridyl]piperazin-4-yl-carbonyl]benzoyl]piperazine]	38	53	–	–	43	52
CC(C)Nc1cccnc1N1CCN(C(=O)c2ccc(C(=O)N3CCN(CCO)CC3)cc2)CC1 [Compound No. 26, 4-(2-Hydroxyethyl)-1-[4-[1-[3-(isopropylamino)-2-pyridyl]piperazin-4-yl-carbonyl]benzoyl]piperazine]	66	95	32	54	45	55
CC(C)Nc1cccnc1N1CCN(C(=O)c2ccc(C(=O)NC(CO)CO)cc2)CC1 [Compound No. 52, 1-[N-[Bis(hydroxymethyl)methyl]carbamoyl]-4-[1-[3-(isopropylamino)-2-pyridyl]piperazin-4-yl-carbonyl]benzene]	41	58	52	63	57	61
CC(C)Nc1cccnc1N1CCN(C(=O)c2ccc(C(=O)NCCO)cc2)CC1 [Compound No. 1, 1-[N-(2-Hydroxyethyl)carbamoyl]-4-[1-[3-(isopropylamino)-2-pyridyl]piperazin-4-yl-carbonyl]benzene]	11	80	53	55	41	62
CC(C)Nc1cccnc1N1CCN(C(=O)c2ccc(C(=O)N3CCN(CCCO)CC3)cc2)CC1 [Compound No. 27, 4-(3-Hydroxypropyl)-1-[4-[1-[3-(isopropylam-ino)-2-pyridyl]piperazin-4-yl-carbonyl]benzoyl]piperazine]	73	81	–	–	40	68
